Measurements reported in US10308671B2, “Water-soluble derivatives of 3,5-diphenyl-diazole compounds” (Max-Planck-Gesellschaft zur Förderung, priority 2015, dated 2019).
Values after ≈ are worked out from the molar mass of the structure shown. Like-named read-outs stand apart in the source and are kept apart here.

Columns and labels:
Solubility in water = format: physicochemical; conditions: for solubility: water
[1] = Pharmacokinetics in rats after single oral dose: anle138b in PEG/Cremophor (Phase 1) vs sery433 in aqueous buffer (Phase 2); format: in vivo, male Sprague Dawley rats; conditions: anle138b combined with excipients based on PEG/cremophor
Description: In the experiment, a single oral dose of anle138b in PEG/Cremophor (“Phase 1”) and sery433 in aqueous solution (“Phase 2”) at a nominal dose of 10 mg/kg were administered to male Sprague Dawley Rats. The experiments were conducted with three rats which are identified as “1M”, “2M” and “3M”.
This study was designed to assess the pharmacokinetics of anle138b and sery433 in male Sprague Dawley rats following single oral administration of anle138b (Phase 1) and sery433 (Phase 2). During Phase 1 and Phase 2 animals received each test compound, appropriately formulated, on one of two separate dose occasions in a cross over design. The dose level was 10 mg/kg for both compounds. The amount of sery433 was not corrected to the amount of anle138b which is present in the prodrug, so that due to the higher molecular weight of sery433 actually a lower amount of active agent was administered.
Phase 1: three naïve male CD rats were dosed orally with anle138b at a target dose level of 10 mg/kg.
Phase 2: one week later (wash out period), sery433 at a target dose of 10 mg/kg was administered orally to the same animals.
During each phase an individual serial plasma profile was drawn from each animal over a period of 24 hours after dosing.
The vehicle was prepared by weighing Cremophor RH40 (45% of final volume); PEG400 (35% of final volume) and Capryol 90 (20% of final volume). […]

[2] = Water-solubility test (visual inspection); format: physicochemical
Description: The solubility of each compound in the water was evaluated by following protocol. Deionized water (1 ml) was added into glass tube containing 10 mg of compound. After shaking for 10 minutes the sample was visually inspected and formation of solution or suspension was documented.

| solubility (in words) (Solubility in water) | anle138b exposure relative to the exposure reached by administration of sery433 [1] | solubility (Solubility in water; read-out: solubility in water) | solubility (Solubility in water; restates 0.2 μM, read-out: water-solubility) | Result of solubility test ([2]; 10 mg compound in 1 ml deionized water, shaking 10 minutes, visual inspection) | solubility at 10 min ([2]; deionized water, water, thermodynamic from solid, read-out: amount soluble in water) | Structure (SMILES) |
| --- | --- | --- | --- | --- | --- | --- |
| even less soluble than anle138b |  |  |  |  |  | CN(C)c1ccc(-c2cc(-c3cccc(Br)c3)[nH]n2)cc1 [Anle253b, 5-(3-Bromophenyl)-3-(4-dimethylaminophenyl)-1H-pyrazole] |
|  | 25% | 0.2 µM | 0.07 µg/mL | insoluble | 0.0686 µg/mL (≈ 0.2 µM) | Brc1cccc(-c2cc(-c3ccc4c(c3)OCO4)n[nH]2)c1 [anle138b, 5-(3-Bromophenyl)-3-(3,4-methylenedioxyphenyl)-1H-pyrazole] |
